The target of the assay is T1, Recombinant human BRD4 containing dual bromodomains (BRD4-BD12 (1-477)) (Homo sapiens, UniProt O60885).
T1 construct: Recombinant human BRD4 containing dual bromodomains (BRD4-BD12 (1-477)); made in house; host or cells: E. coli BL21-CodonPlus (DE3), modified pET vector
Briefly: BRD4 Alphascreen binding assay. The procedure: BRD4 Alphascreen Binding Assay
Binding of compounds of Formula (I) with BRD4 was assessed using Alphascreen binding assay. The inhibition of the interaction between BRD4 and its acetylated target protein was measured quantitatively using recombinant BRD4 protein, an acetylated Histone 4 peptide, and AlphaScreen™ technology. In absence of inhibition of the BRD4 protein bound to AlphaScreen™ nickel chelate acceptor beads can interact with the acetylated Histone 4 peptide which was immobilized by the AlphaScreen™ Streptavidin coated beads. This interaction brings donor and acceptor beads in proximity. The close proximity allows the singlet oxygen produced by laser excitation of the donor beads to reach the acceptor beads and generate a luminescence signal. BRD4 inhibitors result in a decrease in the proximity signal through an inhibition of the BRD4—acetylated peptide interaction.
Recombinant human BRD4 containing dual bromodomains (BRD4-BD12 (1-477)) was prepared and purified as described in protein expression and purification session. The peptide was human Histone H41-21K5AcK8AcK12AcK16Ac-Biotin (Anaspec CA, USA).
Protocol for BRD4 assay: All components are prepared in buffer composed of 50 mM HEPES pH 7.5, 50 mM NaCl, 0.01% BSA, 0.01% Triton X-100, 2 mM DTT. Test compounds and DMSO vehicle are diluted 1:50 in buffer and a 4 μL volume was transferred to an Alphaplate. 5.5 μL of Bromodomain protein and 5.5 μL of peptide are added to wells containing 4 μL of various concentrations of test compounds of Formula (I) or DMSO vehicle in an Alphaplate (PerkinElmer GA, USA) and incubated for 1 hour at room temperature. 5 μL donor and acceptor bead mixture was then added with final concentrations of 7.5 μg/ml. 30 minutes after bead addition, Alpha signal was read on the Envision spectrometer (λEx 680 nm, λEm 520-620 nm). Final concentrations of bromodomain proteins and peptide are as shown below.
All data were normalized to the mean of 16 high and 16 low control wells on each plate. A four parameter curve fit of the following formula was then applied: Y=A+((B−A)/(1+((C/x)^D))) Where ‘A’ is the minimum, ‘B’ is the maximum, ‘C’ is the IC50 and ‘D’ is the Hill slope. Protein Expression and Purification
Recombinant human BRD4 containing dual bromodomains (BRD4-BD12 (1-477)) was expressed in E. coli cells (in a modified pET vector) with an N-terminal six-His tag and purified using a combination of both IMAC (Ni-affinity) and size exclusion chromatography steps.
Recombinant BRD4 was expressed using the E. coli strain BL21-CodonPlus (DE3) (Agilent Technologies CA, USA). Cells were grown in Terrific Broth (TB) media to an OD600 of 2.0 at 37° C. at which temperature was reduced to 18° C., protein was induced with 0.1 mM isopropyl-β-D-thiogalactopyranoside (“IPTG”) for 12-18 hours and harvested by centrifugation at 8000×g for 20 minutes. Cells were re-suspended in 40 mM Tris-HCl pH 8.0, 0.5 M NaCl, 25 mM Imidazole, 5% glycerol, 1/200 vol. Protease Inhibitor Cocktail Set III (Calbiochem), 5 mM beta-mercaptoethanol (“BME”), 0.5 mg/mL Lysozyme, and 0.5 mg/mL DNaseI, incubated on ice for 30 minutes and lysed with a cell disruptor (MicroFluidics MA, USA). The lysate was clarified by centrifugation at 20,000×g for 2 hours. The protein was captured with Ni-NTA resin (Life Technologies, USA). Contaminating proteins were washed off with 40 mM Tris-HCl pH 8.0, 0.5 M NaCl, 25 mM Imidazole, 5% glycerol, and 5 mM BME. Following 3× wash steps, protein was eluted step wise into wash buffer containing 50, 100, 150, 500 mM Imidazole. The protein was further purified using Gel Filtration column 16/60 Superdex 200 (GE Biosciences NJ, USA) in 10 mM HEPES pH 8.0, 150 mM NaCl, and 5 mM DTT. Glycerol was added to a final concentration of 12% and the protein was aliquoted and flash-frozen in liquid Nitrogen.
With `CCOc1cc(C(=O)O)ccc1-c1cn([C@@H](C)c2ccccn2)c2ncc(-c3c(C)noc3C)cc12` [P-0114, (S)-4-(5-(3,5-dimethylisoxazol-4-yl)-1-(1-(pyridin-2-yl)ethyl)-1H-pyrrolo[2,3-b]pyridin-3-yl)-3-ethoxybenzoic acid], the concentration for half-maximal inhibition (IC50) was 8 to 1000 µM.
As for `Cc1noc(C)c1-c1cnc2c(c1)c(-c1ccc(C(=O)O)cc1OCC(F)(F)F)cn2[C@@H](C)c1ccccn1` [P-0115, (S)-4-(5-(3,5-dimethylisoxazol-4-yl)-1-(1-(pyridin-2-yl)ethyl)-1H-pyrrolo[2,3-b]pyridin-3-yl)-3-(2,2,2-trifluoroethoxy)benzoic acid], the IC50 fell in the range of 8 to 1000 µM.
Consider `Cc1noc(C)c1-c1cnc2c(c1)c(-c1ccc(C(=O)O)cc1C(F)(F)F)cn2[C@@H](C)c1ccccn1` [P-0116, (S)-4-(5-(3,5-dimethylisoxazol-4-yl)-1-(1-(pyridin-2-yl)ethyl)-1H-pyrrolo[2,3-b]pyridin-3-yl)-3-(trifluoromethyl)benzoic acid], for which the IC50 was in the range of 1 to 8 µM.
Turning to `CCCOc1cc(C(=O)O)cc(OCCC)c1-c1cn([C@@H](C)c2ccccn2)c2ncc(-c3c(C)noc3C)cc12` [P-0117, (S)-4-(5-(3,5-dimethylisoxazol-4-yl)-1-(1-(pyridin-2-yl)ethyl)-1H-pyrrolo[2,3-b]pyridin-3-yl)-3,5-dipropoxybenzoic acid], the IC50 is 1 to 8 µM.
With `Cc1noc(C)c1-c1cnc2c(c1)c(-c1c(OC(C)C)cc(C(=O)O)cc1OC(C)C)cn2[C@@H](C)c1ccccn1` [P-0118, (S)-4-(5-(3,5-dimethylisoxazol-4-yl)-1-(1-(pyridin-2-yl)ethyl)-1H-pyrrolo[2,3-b]pyridin-3-yl)-3,5-diisopropoxybenzoic acid] the figure was 8 to 1000 µM; with `COc1cc(C(=O)O)cc(OC)c1-c1cn(C(C)c2ccccc2)c2cc(-c3c(C)noc3C)cnc12` (centres unmarked) [P-0119, 4-(6-(3,5-dimethylisoxazol-4-yl)-1-(1-phenylethyl)-1H-pyrrolo[3,2-b]pyridin-3-yl)-3,5-dimethoxybenzoic acid], 1 to 8 µM; with `Cc1noc(C)c1-c1cnc2c(-c3ccccc3C(=O)O)cn(C(C)c3ccccc3)c2c1` (centres unmarked) [P-0120, 2-(6-(3,5-dimethylisoxazol-4-yl)-1-(1-phenylethyl)-1H-pyrrolo[3,2-b]pyridin-3-yl)benzoic acid], 1 to 8 µM.
On to `Cc1noc(C)c1-c1cnc2c(C(=O)C3CCC3)cn(-c3c(Cl)cc(C(=O)O)cc3Cl)c2c1` [P-0121, 3,5-dichloro-4-(3-(cyclobutanecarbonyl)-6-(3,5-dimethylisoxazol-4-yl)-1H-pyrrolo[3,2-b]pyridin-1-yl)benzoic acid], for which the IC50 fell in the range of 1 to 8 µM.
With `Cc1noc(C)c1-c1cnc2c(c1)c(-c1cccc(C(=O)O)n1)cn2C(C)c1ccccn1` (centres unmarked) [P-0122, 6-(5-(3,5-dimethylisoxazol-4-yl)-1-(1-(pyridin-2-yl)ethyl)-1H-pyrrolo[2,3-b]pyridin-3-yl)picolinic acid] the figure was 8 to 1000 µM; with `Cc1noc(C)c1-c1cnc2c(c1)c(-c1ccc(C(=O)O)cn1)cn2C(C)c1ccccn1` (centres unmarked) [P-0123, 6-(5-(3,5-dimethylisoxazol-4-yl)-1-(1-(pyridin-2-yl)ethyl)-1H-pyrrolo[2,3-b]pyridin-3-yl)nicotinic acid], 8 to 1000 µM; with `Cc1noc(C)c1-c1cnc2c(c1)c(-c1cc(C(=O)O)ccn1)cn2C(C)c1ccccn1` (centres unmarked) [P-0124, 2-(5-(3,5-dimethylisoxazol-4-yl)-1-(1-(pyridin-2-yl)ethyl)-1H-pyrrolo[2,3-b]pyridin-3-yl)isonicotinic acid], 8 to 1000 µM.
`Cc1noc(C)c1-c1cnc2c(c1)c(-c1ccc(F)c(C(=O)O)c1F)cn2[C@@H](C)c1ccccn1` [P-0125, (S)-3-(5-(3,5-dimethylisoxazol-4-yl)-1-(1-(pyridin-2-yl)ethyl)-1H-pyrrolo[2,3-b]pyridin-3-yl)-2,6-difluorobenzoic acid]: the IC50 lay within 8 to 1000 µM.
The figure for `Cc1noc(C)c1-c1cnc2c(c1)c(-c1ccnc(C(=O)O)n1)cn2C(C)c1ccccn1` (centres unmarked) [P-0126, 4-(5-(3,5-dimethylisoxazol-4-yl)-1-(1-(pyridin-2-yl)ethyl)-1H-pyrrolo[2,3-b]pyridin-3-yl)pyrimidine-2-carboxylic acid] is 8 to 1000 µM.
As to `CCCOc1cc(C(=O)O)cc(OCCC)c1-n1cc(CC2CCC2)c2ncc(-c3c(C)noc3C)cc21` [P-0127, 4-(3-(cyclobutylmethyl)-6-(3,5-dimethylisoxazol-4-yl)-1H-pyrrolo[3,2-b]pyridin-1-yl)-3,5-dipropoxybenzoic acid], the IC50 fell in the range of 8 to 1000 µM.
For `Cc1noc(C)c1-c1cnc2c(Cc3cccc(Cl)c3)cn(-c3c(Cl)cc(C(=O)O)cc3Cl)c2c1` [P-0128, 3,5-dichloro-4-(3-(3-chlorobenzyl)-6-(3,5-dimethylisoxazol-4-yl)-1H-pyrrolo[3,2-b]pyridin-1-yl)benzoic acid], the IC50 is 1 to 8 µM.
The figure for `Cc1noc(C)c1-c1cnc2c(C(=O)c3cccc(OC(F)F)c3)cn(-c3c(Cl)cc(C(=O)O)cc3Cl)c2c1` [P-0129, 3,5-dichloro-4-(3-(3-(difluoromethoxy)benzoyl)-6-(3,5-dimethylisoxazol-4-yl)-1H-pyrrolo[3,2-b]pyridin-1-yl)benzoic acid] is 1 to 8 µM.
As for `Cc1noc(C)c1-c1cnc2c(CC3CCC3)cn(-c3ccc([N+](=O)[O-])cc3F)c2c1` [P-0130, 4-(3-(cyclobutylmethyl)-1-(2-fluoro-4-nitrophenyl)-1H-pyrrolo[3,2-b]pyridin-6-yl)-3,5-dimethylisoxazole], the IC50 lay in the range of 8 to 1000 µM.
The figure for `Cc1noc(C)c1-c1cnc2c(Cc3ccccc3Cl)cn(-c3c(Cl)cc(C(=O)O)cc3Cl)c2c1` [P-0131, 3,5-dichloro-4-(3-(2-chlorobenzyl)-6-(3,5-dimethylisoxazol-4-yl)-1H-pyrrolo[3,2-b]pyridin-1-yl)benzoic acid] is 1 to 8 µM; for `Cc1noc(C)c1-c1cnc2c(Cc3cccc(OCc4ccccc4)c3)cn(-c3c(Cl)cc(C(=O)O)cc3Cl)c2c1` [P-0132, 4-(3-(3-(benzyloxy)benzyl)-6-(3,5-dimethylisoxazol-4-yl)-1H-pyrrolo[3,2-b]pyridin-1-yl)-3,5-dichlorobenzoic acid] it is 8 to 1000 µM.
`Cc1noc(C)c1-c1cnc2c(C(=O)c3cccc(OCc4ccccc4)c3)cn(-c3c(Cl)cc(C(=O)O)cc3Cl)c2c1` [P-0133, 4-(3-(3-(benzyloxy)benzoyl)-6-(3,5-dimethylisoxazol-4-yl)-1H-pyrrolo[3,2-b]pyridin-1-yl)-3,5-dichlorobenzoic acid]: the IC50 was 1 to 8 µM.
With `COc1ccc(-n2cc(CC3CCC3)c3ncc(-c4c(C)noc4C)cc32)cn1` [P-0134, 4-(3-(cyclobutylmethyl)-1-(6-methoxypyridin-3-yl)-1H-pyrrolo[3,2-b]pyridin-6-yl)-3,5-dimethylisoxazole] the figure was 8 to 1000 µM; with `COc1cc(C(=O)O)cc(OCc2ccccc2)c1-c1cn([C@@H](C)c2ccccn2)c2ncc(-c3c(C)noc3C)cc12` [P-0135, (S)-3-(benzyloxy)-4-(5-(3,5-dimethylisoxazol-4-yl)-1-(1-(pyridin-2-yl)ethyl)-1H-pyrrolo[2,3-b]pyridin-3-yl)-5-methoxybenzoic acid], 8 to 1000 µM; with `COc1c(C(=O)O)cccc1-c1cn(C(C)c2ccccc2)c2cc(-c3c(C)noc3C)cnc12` (centres unmarked) [P-0136, 3-(6-(3,5-dimethylisoxazol-4-yl)-1-(1-phenylethyl)-1H-pyrrolo[3,2-b]pyridin-3-yl)-2-methoxybenzoic acid], 0.0001 to 1 µM.

These data come from patent US11446287B2, “Compounds and methods for EP300 or CBP modulation and indications therefor” (Opna Immuno-Oncology SA, priority 2019, dated 2022).
